One assay has as its target CRBN-DDB1 (Homo sapiens (Human), UniProt Q96SW2). Briefly: CRBN HTRF assay (Cy5-Thalidomide probe displacement). It counts as binding. Particulars: CRBN-DDB1 2.5 nM, Cy5-Thalidomide 100 nM, 30 min; Ki from geometric mean IC50 by Cheng-Prusoff. Summed up:
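HTRF displacement of Cy5-thalidomide probe (100 nM) from His-CRBN-DDB1 (2.5 nM) with anti-His terbium cryptate, in HEPES/NaCl/TCEP/EDTA/Tween20 buffer. 10-point 1:3 compound series, 30 min at ambient temperature; signal normalised to DMSO and lenalidomide controls, IC50 fitted and Ki derived by Cheng-Prusoff.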
(In general: Time-resolved FRET reads energy transfer from a long-lived donor to a nearby acceptor.)

In a further assay the target is CDK2 (Homo sapiens (Human), UniProt P24941). The experiment in a line: CDK2 NanoBiT assay (HiBiT-tagged CDK2 degradation). Particulars: C-terminal HiBiT tag on CDK2, LgBiT, 24 hours; for Dmax: HEK293, HEK293 clonal line. It is filed as cell-based. Summed up:
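HEK293 line with CRISPR knock-in C-terminal HiBiT-tagged CDK2 and stable LgBiT, preincubated 16 h with live-cell substrate, then compound-treated 24 h at 37° C, 5% CO2 (30 μM stock). Luminescence normalized to plate negative and positive controls; EC50 from 3-parameter logistic fit, Hill slope 1.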

CRBN-DDB1, sequence (Q96SW2 whole entry): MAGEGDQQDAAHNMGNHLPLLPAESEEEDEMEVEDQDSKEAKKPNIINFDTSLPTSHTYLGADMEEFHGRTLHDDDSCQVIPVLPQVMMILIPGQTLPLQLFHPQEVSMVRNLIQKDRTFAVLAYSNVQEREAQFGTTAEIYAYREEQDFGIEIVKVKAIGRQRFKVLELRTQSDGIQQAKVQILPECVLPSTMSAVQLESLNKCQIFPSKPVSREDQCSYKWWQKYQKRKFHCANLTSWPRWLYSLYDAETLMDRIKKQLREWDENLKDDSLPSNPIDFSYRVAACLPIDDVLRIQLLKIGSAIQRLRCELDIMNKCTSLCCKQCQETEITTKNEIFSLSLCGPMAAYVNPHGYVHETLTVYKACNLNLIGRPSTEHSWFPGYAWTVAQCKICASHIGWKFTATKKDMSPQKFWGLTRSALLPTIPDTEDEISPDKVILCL
CRBN-DDB1, sequence (Q16531 whole entry partner): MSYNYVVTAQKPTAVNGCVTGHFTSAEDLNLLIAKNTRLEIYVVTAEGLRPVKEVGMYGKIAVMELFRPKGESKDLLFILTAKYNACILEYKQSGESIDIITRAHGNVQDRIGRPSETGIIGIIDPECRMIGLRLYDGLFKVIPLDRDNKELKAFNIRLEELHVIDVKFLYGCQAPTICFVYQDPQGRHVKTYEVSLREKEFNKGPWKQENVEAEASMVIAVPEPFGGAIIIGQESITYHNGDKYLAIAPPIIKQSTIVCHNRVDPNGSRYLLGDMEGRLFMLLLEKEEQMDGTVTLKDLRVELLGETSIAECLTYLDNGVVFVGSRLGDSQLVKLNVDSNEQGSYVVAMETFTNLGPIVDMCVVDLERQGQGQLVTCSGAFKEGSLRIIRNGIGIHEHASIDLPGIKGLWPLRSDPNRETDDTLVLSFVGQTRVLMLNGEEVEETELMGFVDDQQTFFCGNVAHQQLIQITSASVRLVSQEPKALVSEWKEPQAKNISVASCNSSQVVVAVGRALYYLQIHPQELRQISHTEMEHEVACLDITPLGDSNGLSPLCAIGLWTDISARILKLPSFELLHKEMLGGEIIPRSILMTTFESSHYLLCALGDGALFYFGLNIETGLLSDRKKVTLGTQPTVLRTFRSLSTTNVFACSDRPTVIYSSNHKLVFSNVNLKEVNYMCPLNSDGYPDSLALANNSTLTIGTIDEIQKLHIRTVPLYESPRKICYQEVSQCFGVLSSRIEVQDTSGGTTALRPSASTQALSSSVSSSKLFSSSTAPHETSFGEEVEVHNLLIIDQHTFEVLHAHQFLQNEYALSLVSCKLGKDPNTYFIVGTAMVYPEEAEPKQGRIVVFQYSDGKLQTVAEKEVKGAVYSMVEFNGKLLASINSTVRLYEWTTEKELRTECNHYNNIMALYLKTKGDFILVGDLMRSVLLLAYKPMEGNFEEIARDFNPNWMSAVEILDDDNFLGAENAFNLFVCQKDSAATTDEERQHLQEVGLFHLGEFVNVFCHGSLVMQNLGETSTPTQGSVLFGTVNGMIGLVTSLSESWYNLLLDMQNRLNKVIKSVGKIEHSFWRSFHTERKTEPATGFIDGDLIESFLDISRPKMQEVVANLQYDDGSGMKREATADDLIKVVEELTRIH

With `COc1c(N2CC(Nc3nnc(C4CC5(CCC5)C4)o3)C2)ccc(C2CCC(=O)NC2=O)c1Cl` (centres unmarked) [Compound 91, 3-(2-chloro-3-methoxy-4-(3-((5-(spiro[3.3]heptan-2-yl)-1,3,4-oxadiazol-2-yl)amino)azetidin-1-yl)phenyl)piperidine-2,6-dione], on CRBN-DDB1, the inhibitory constant (Ki) (commonly a measure of affinity in units of concentration, obtained from inhibition or displacement) lay in the range of 100 to 1000 nM. Further, the Dmax (as a rule, the largest share of the target that was removed) at CDK2 was greater than 80%.
For the molecule `C[C@H]1CC[C@H](COC(=O)NC2CN(c3cc(F)c(C4CCC(=O)NC4=O)c(F)c3)C2)CC1` (some centres unmarked) [Compound 52, ((1r, 4r)-4-methylcyclohexyl)methyl (1-(4-(2,6-dioxopiperidin-3-yl)-3,5-difluorophenyl)azetidin-3-yl)carbamate], the inhibition constant Ki on CRBN-DDB1 is no more than 100 nM. Moreover, the Dmax on CDK2 was greater than 80%.
On the same counts, the results for `O=C1CCC(c2c(F)cc(N3CC(NC(=O)OC4CN(C(=O)N5CCC56CCC6)C4)C3)cc2F)C(=O)N1` (centres unmarked) [Compound 33, 1-(1-azaspiro[3.3]heptane-1-carbonyl)azetidin-3-yl (1-(4-(2,6-dioxopiperidin-3-yl)-3,5-difluorophenyl)azetidin-3-yl)carbamate] are no more than 100 nM and 50 to 80%.
On CRBN-DDB1, `O=C1CCC(c2c(Cl)cc(N3CC(Nc4nnc(C5CC6(CCC6)C5)o4)C3)cc2Cl)C(=O)N1` (centres unmarked) [Compound 102, 3-(2,6-dichloro-4-(3-((5-(spiro[3.3]heptan-2-yl)-1,3,4-oxadiazol-2-yl)amino)azetidin-1-yl)phenyl)piperidine-2,6-dione] returned a Ki of no more than 100 nM. The Dmax on CDK2 was greater than 80%.
On the same counts, the results for `CN(C(=O)N1CC[C@@H](OC(=O)NC2CN(c3cc(F)c(C4CCC(=O)NC4=O)c(F)c3)C2)C1)C1CC1` (stereo partly drawn) [Compound 25, (R)-1-(cyclopropyl(methyl)carbamoyl)pyrrolidin-3-yl (1-(4-(2,6-dioxopiperidin-3-yl)-3,5-difluorophenyl)azetidin-3-yl)carbamate] are no more than 100 nM and 10 to 50%.
On the same counts, the results for `Cc1cc(N2CC(NC(=O)OC3CN(C(=O)N(C)C4CC4)C3)C2)cc(C)c1C1CCC(=O)NC1=O` (centres unmarked) [Compound 86, 1-(cyclopropyl(methyl)carbamoyl)azetidin-3-yl (1-(4-(2,6-dioxopiperidin-3-yl)-3,5-dimethylphenyl)azetidin-3-yl)carbamate] are 100 to 1000 nM and 10 to 50%.
`CC(C)(C)[Si](C)(C)O[C@H]1C[C@@H](COC(=O)NC2CN(c3cc(F)c(C4CCC(=O)NC4=O)c(F)c3)C2)C1` (some centres unmarked) [Compound 49, ((1s, 3s)-3-((tert-butyldimethylsilyl)oxy)cyclobutyl)methyl (1-(4-(2,6-dioxopiperidin-3-yl)-3,5-difluorophenyl)azetidin-3-yl)carbamate] gave a Ki on CRBN-DDB1 of 100 to 1000 nM. Further, the Dmax on CDK2 was greater than 80%.
On the same counts, the results for `O=C1CCC(c2c(F)cc(N3CC(NC(=O)OCC4CCCCC4)C3)cc2F)C(=O)N1` (centres unmarked) [Compound 51, cyclohexylmethyl (1-(4-(2,6-dioxopiperidin-3-yl)-3,5-difluorophenyl)azetidin-3-yl)carbamate] are no more than 100 nM and greater than 80%.
On the same counts, the results for `COc1cccc(N(C)C(=O)C23CC(OC(=O)NC4CN(c5cc(F)c(C6CCC(=O)NC6=O)c(F)c5)C4)(C2)C3)c1` (centres unmarked) [Compound 130, 3-((3-methoxyphenyl)(methyl)carbamoyl)bicyclo[1.1.1]pentan-1-yl (1-(4-(2,6-dioxopiperidin-3-yl)-3,5-difluorophenyl)azetidin-3-yl)carbamate] are no more than 100 nM and 50 to 80%.
On the same counts, the results for `Cc1ccccc1-c1nnc(NC2CN(c3cc(F)c(C4CCC(=O)NC4=O)c(F)c3)C2)o1` (centres unmarked) [Compound 96, 3-(2,6-difluoro-4-(3-((5-(o-tolyl)-1,3,4-oxadiazol-2-yl)amino)azetidin-1-yl)phenyl)piperidine-2,6-dione] are no more than 100 nM and greater than 80%.
The molecule `CN(C(=O)N1CC(OC(=O)NC2(C)CN(c3cc(F)c(C4CCC(=O)NC4=O)c(F)c3)C2)C1)C1CC1` (centres unmarked) [Compound 12, 1-(cyclopropyl(methyl)carbamoyl)azetidin-3-yl (1-(4-(2,6-dioxopiperidin-3-yl)-3,5-difluorophenyl)-3-methylazetidin-3-yl)carbamate] came in with an inhibition constant (Ki) on CRBN-DDB1 of no more than 100 nM. This molecule also showed a Dmax on CDK2 of 50 to 80%.
On the same counts, the results for `O=C1CCC(c2c(F)cc(N3CC(NC(=O)OC4CN(C(=O)Cc5ccccc5)C4)C3)cc2F)C(=O)N1` (centres unmarked) [Compound 74, 1-(2-phenylacetyl)azetidin-3-yl (1-(4-(2,6-dioxopiperidin-3-yl)-3,5-difluorophenyl)azetidin-3-yl)carbamate] are no more than 100 nM and 50 to 80%.
On the same counts, the results for `CN(C)C(=O)N1CC[C@H](OC(=O)NC2CN(c3cc(F)c(C4CCC(=O)NC4=O)c(F)c3)C2)C1` (stereo partly drawn) [Compound 27, (S)-1-(dimethylcarbamoyl)pyrrolidin-3-yl (1-(4-(2,6-dioxopiperidin-3-yl)-3,5-difluorophenyl)azetidin-3-yl)carbamate] are no more than 100 nM and 10 to 50%.
On the same counts, the results for `O=C1CCC(c2c(F)cc(N3CC(Nc4nnc(-c5ccccn5)o4)C3)cc2F)C(=O)N1` (centres unmarked) [Compound 124, 3-(2,6-difluoro-4-(3-((5-(pyridin-2-yl)-1,3,4-oxadiazol-2-yl)amino)azetidin-1-yl)phenyl)piperidine-2,6-dione] are no more than 100 nM and 10 to 50%.
Turning to `O=C1CCC(c2c(F)cc(N3CC(NC(=O)OC[C@@H]4C[C@H]5CC[C@@H]4C5)C3)cc2F)C(=O)N1` (stereo partly drawn) [Compound 3, (1R,2R,4S)-bicyclo[2.2.1]heptan-2-ylmethyl (1-(4-(2,6-dioxopiperidin-3-yl)-3,5-difluorophenyl)azetidin-3-yl)carbamate], the Ki on CRBN-DDB1 is no more than 100 nM. At CDK2, this molecule showed a Dmax greater than 80%.
In the case of `O=C1CCC(c2c(F)cc(N3CC(NC(=O)OC45CC(C(=O)c6ccccc6)(C4)C5)C3)cc2F)C(=O)N1` (centres unmarked) [Compound 4], at CRBN-DDB1, the inhibition constant (Ki) is no more than 100 nM. Also, the “CDK2 NanoBiT Dmax (%)” value on CDK2 (HEK293 clonal line) is reported as “D (D represents Dmax value of >80%)”.
For `COc1ccc(N(C)C(=O)N2CC(OC(=O)NC3CN(c4cc(F)c(C5CCC(=O)NC5=O)c(F)c4)C3)C2)cc1` (centres unmarked) [Compound 13, 1-((4-methoxyphenyl)(methyl)carbamoyl)azetidin-3-yl(1-(4-(2,6-dioxopiperidin-3-yl)-3,5-difluorophenyl)azetidin-3-yl)carbamate], the Ki on CRBN-DDB1 is no more than 100 nM. The same molecule yielded a Dmax on CDK2 of 50 to 80%.
On the same counts, the results for `CN(CC1CC1)C(=O)N1CC(OC(=O)NC2CN(c3cc(F)c(C4CCC(=O)NC4=O)c(F)c3)C2)C1` (centres unmarked) [Compound 43, 1-((cyclopropylmethyl)(methyl)carbamoyl)azetidin-3-yl (1-(4-(2,6-dioxopiperidin-3-yl)-3,5-difluorophenyl)azetidin-3-yl)carbamate] are no more than 100 nM and 50 to 80%.
On the same counts, the results for `O=C1CCC(c2c(F)cc(N3CC(NC(=O)OC4CN(C(=O)N5CCc6ccccc65)C4)C3)cc2F)C(=O)N1` (centres unmarked) [Compound 9, 1-(indoline-1-carbonyl)azetidin-3-yl (1-(4-(2,6-dioxopiperidin-3-yl)-3,5-difluorophenyl)azetidin-3-yl)carbamate] are no more than 100 nM and greater than 80%.
On the same counts, the results for `CC1(CCCOC(=O)NC2CN(c3cc(F)c(C4CCC(=O)NC4=O)c(F)c3)C2)CC1` (centres unmarked) [Compound 66, 3-(1-methylcyclopropyl)propyl (1-(4-(2,6-dioxopiperidin-3-yl)-3,5-difluorophenyl)azetidin-3-yl)carbamate] are no more than 100 nM and greater than 80%.
On to `Cc1cccc(N(C)C(=O)C23CC(OC(=O)NC4CN(c5cc(F)c(C6CCC(=O)NC6=O)c(F)c5)C4)(C2)C3)c1C` (centres unmarked) [Compound 114, 3-((2,3-dimethylphenyl)(methyl)carbamoyl)bicyclo[1.1.1]pentan-1-yl (1-(4-(2,6-dioxopiperidin-3-yl)-3,5-difluorophenyl)azetidin-3-yl)carbamate], for which, at CRBN-DDB1, the inhibition constant Ki was no more than 100 nM. The molecule further gave a maximal degradation (Dmax) at CDK2 of 10 to 50%.
On the same counts, the results for `CN(C(=O)N1CC(OC(=O)NC2CN(c3cc(F)c(C4CCC(=O)NC4=O)c(F)c3)C2)C1)c1ccc(C#N)cc1` (centres unmarked) [Compound 73, 1-((4-cyanophenyl)(methyl)carbamoyl)azetidin-3-yl (1-(4-(2,6-dioxopiperidin-3-yl)-3,5-difluorophenyl)azetidin-3-yl)carbamate] are no more than 100 nM and 50 to 80%.
On the same counts, the results for `COc1c(N2CC(NC(=O)OCC3CC4(CCC4)C3)C2)ccc(C2CCC(=O)NC2=O)c1Cl` (centres unmarked) [Compound 63, spiro[3.3]heptan-2-ylmethyl (1-(3-chloro-4-(2,6-dioxopiperidin-3-yl)-2-methoxyphenyl)azetidin-3-yl)carbamate] are 100 to 1000 nM and greater than 80%.
On the same counts, the results for `O=C1CCC(c2c(Cl)cc(N3CC(NC(=O)OCC4CC5(CCC5)C4)C3)cc2Cl)C(=O)N1` (centres unmarked) [Compound 28, spiro[3.3]heptan-2-ylmethyl (1-(3,5-dichloro-4-(2,6-dioxopiperidin-3-yl)phenyl)azetidin-3-yl)carbamate] are no more than 100 nM and greater than 80%.
`O=C1CCC(c2c(F)cc(N3CC(NC(=O)OC4CN(c5ccccn5)C4)C3)cc2F)C(=O)N1` (centres unmarked) [Compound 83, 1-(pyridin-2-yl)azetidin-3-yl (1-(4-(2,6-dioxopiperidin-3-yl)-3,5-difluorophenyl)azetidin-3-yl)carbamate] returned a Ki on CRBN-DDB1 of no more than 100 nM. For the same molecule, on CDK2, the Dmax lay within 50 to 80%.

Source of the values: US20250263395A1, “COMPOUNDS THAT MEDIATE PROTEIN DEGRADATION AND METHODS OF USE THEREOF” (Monte Rosa Therapeutics AG, priority 2022, published 2025).
